COCC(=O)Nc1c(I)c(C(=O)NCC(O)CO)c(I)c(C(=O)N(C)CC(O)CO)c1I (stereo not given)
solubility (mole fraction)
Settings	273.15 K	278.15 K	283.15 K	288.15 K	293.15 K	298.15 K	303.15 K	308.15 K	313.15 K	318.15 K
in DMF	0.00368	0.0038	0.00394	0.00409	0.00427	0.00446	0.00467	0.0049	0.00517	0.00544
in acetone	3.54e-05	4.29e-05	5.29e-05	6.52e-05	7.88e-05	9.34e-05	0.00011	0.000128	0.000149	0.000171
in ethanol	0.000152	0.000178	0.000215	0.000254	0.000296	0.000339	0.000384	0.000437	0.000495	0.000558
in ethyl acetate	1.36e-05	2.01e-05	2.74e-05	3.57e-05	4.52e-05	5.65e-05	6.84e-05	8.46e-05	0.000101	0.000127
in isopropanol	5.1e-05	6.23e-05	7.52e-05	9.01e-05	0.000108	0.000128	0.00015	0.000177	0.000203	0.000233
in methanol	0.000236	0.000282	0.000349	0.000419	0.000496	0.000576	0.000666	0.00077	0.00088	0.000997
in toluene	9.9e-06	1.08e-05	1.19e-05	1.31e-05	1.43e-05	1.56e-05	1.69e-05	1.83e-05	1.97e-05	2.12e-05

Reference: BigSolDB 2.1
